The text below walks through data of US7368432B2 (Xenome, Ltd., priority 1999, dated 2008).

One data set deals with CF-1 mice. The settings on record: in vivo.
The conditions of data set [1]: in vivo.
Data set [2] relates to mice. The settings on record: mouse, in vivo.
Data set [3] deals with mice. The settings on record: mouse, in vivo. The source holds these as a separate data set.

For NGVCCGYKLCHOC [Mar1], the “analgesic activity in mouse hot plate assay” value in the data set with CF-1 mice was “potent analgesics”. For the same sequence, in the data set on CF-1 mice (mouse), the “increase in the latency to first hind paw lick” value is reported as “dose-dependent”, the “latency to first hind paw lick” value was found to be 39.5 ± 13.5 s and the “latency to lick the hind paw” value was “significantly increased”. Also, the “activity in formalin test (licking time)” value in data set [1] is on record as “active”. In the data set with mice [2], the “activity in tail-flick model” value is recorded as “active”, the effective dose range entry was “low nanomole range” and the “response latency in the tail flick model” value is given as “reduced the response latency”. Also, in the data set on mice [3], the “symptoms after high-dose i.c.v. administration” value was “akinesia and seizures”; the “symptoms after i.c.v. injection of HPLC fractions” value is on record as “hypokinetic “sluggish” symptoms”.
